This passage reports IC50 results from patent US11584747B2, “Substituted pyridopyrimidinonyl compounds useful as T cell activators” (BRISTOL-MYERS SQUIBB COMPANY, priority 2019, dated 2023).

The target of one test is human DGKα (Homo sapiens (Human), UniProt P23743). Kind of test: DGKα ADPGLO assay (detergent/lipid micelle substrate). The note with it: truncated DGK alpha; read-out: DGK alpha ADPGLO (Truncated) IC50. Type of test: biochemical. The protocol:
DGK Alpha ADPGLO (Truncated) IC50 (uM)
The detergent/lipid micelle was prepared by combining 15 g phosphatidylserine (Avanti 840035P) and 1 g diacylglycerol (8008110) and dissolving into 150 mL chloroform in a 2 L round bottom flask. Chloroform was removed under high vacuum by rotary evaporation. […] The lipid/detergent solution was split into 5 mL aliquots and stored at −80° C.
On the technique in general: ADP-Glo turns the ADP formed in a reaction into a luminescent signal.

Another test has as its target human DGKζ (Homo sapiens (Human), UniProt Q13574). Briefly: DGKζ LIPGLO assay (extruded liposome substrate, ADP-Glo luminescence). It counts as biochemical. Particulars: liposome assay; read-out: DGK zeta LIPGLO IC50.

Broadly, the IC50 is the concentration needed to halve the response being measured.

Sequence of human DGKα (P23743 whole entry, looked up, the tested form may be a part): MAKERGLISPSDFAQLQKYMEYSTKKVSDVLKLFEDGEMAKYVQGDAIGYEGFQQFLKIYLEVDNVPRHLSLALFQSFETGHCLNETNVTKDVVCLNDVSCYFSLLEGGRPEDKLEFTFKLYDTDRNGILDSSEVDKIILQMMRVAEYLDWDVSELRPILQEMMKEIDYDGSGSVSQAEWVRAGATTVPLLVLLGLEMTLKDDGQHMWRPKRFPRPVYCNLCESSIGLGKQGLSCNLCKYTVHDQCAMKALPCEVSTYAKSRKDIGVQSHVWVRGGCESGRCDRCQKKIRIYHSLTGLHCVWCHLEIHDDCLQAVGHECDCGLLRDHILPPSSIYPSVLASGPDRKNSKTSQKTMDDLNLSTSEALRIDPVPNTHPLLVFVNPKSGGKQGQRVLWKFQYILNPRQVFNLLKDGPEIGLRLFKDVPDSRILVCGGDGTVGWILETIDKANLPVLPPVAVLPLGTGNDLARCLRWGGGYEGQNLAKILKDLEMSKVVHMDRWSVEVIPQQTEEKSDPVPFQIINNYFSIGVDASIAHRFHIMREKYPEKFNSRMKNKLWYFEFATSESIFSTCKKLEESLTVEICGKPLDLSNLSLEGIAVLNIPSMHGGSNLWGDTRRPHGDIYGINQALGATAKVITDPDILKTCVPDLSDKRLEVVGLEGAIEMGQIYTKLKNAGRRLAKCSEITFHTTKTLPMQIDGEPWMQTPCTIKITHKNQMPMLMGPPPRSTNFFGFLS
Sequence of human DGKζ (Q13574 other isoform, or with tags, fused parts or gaps): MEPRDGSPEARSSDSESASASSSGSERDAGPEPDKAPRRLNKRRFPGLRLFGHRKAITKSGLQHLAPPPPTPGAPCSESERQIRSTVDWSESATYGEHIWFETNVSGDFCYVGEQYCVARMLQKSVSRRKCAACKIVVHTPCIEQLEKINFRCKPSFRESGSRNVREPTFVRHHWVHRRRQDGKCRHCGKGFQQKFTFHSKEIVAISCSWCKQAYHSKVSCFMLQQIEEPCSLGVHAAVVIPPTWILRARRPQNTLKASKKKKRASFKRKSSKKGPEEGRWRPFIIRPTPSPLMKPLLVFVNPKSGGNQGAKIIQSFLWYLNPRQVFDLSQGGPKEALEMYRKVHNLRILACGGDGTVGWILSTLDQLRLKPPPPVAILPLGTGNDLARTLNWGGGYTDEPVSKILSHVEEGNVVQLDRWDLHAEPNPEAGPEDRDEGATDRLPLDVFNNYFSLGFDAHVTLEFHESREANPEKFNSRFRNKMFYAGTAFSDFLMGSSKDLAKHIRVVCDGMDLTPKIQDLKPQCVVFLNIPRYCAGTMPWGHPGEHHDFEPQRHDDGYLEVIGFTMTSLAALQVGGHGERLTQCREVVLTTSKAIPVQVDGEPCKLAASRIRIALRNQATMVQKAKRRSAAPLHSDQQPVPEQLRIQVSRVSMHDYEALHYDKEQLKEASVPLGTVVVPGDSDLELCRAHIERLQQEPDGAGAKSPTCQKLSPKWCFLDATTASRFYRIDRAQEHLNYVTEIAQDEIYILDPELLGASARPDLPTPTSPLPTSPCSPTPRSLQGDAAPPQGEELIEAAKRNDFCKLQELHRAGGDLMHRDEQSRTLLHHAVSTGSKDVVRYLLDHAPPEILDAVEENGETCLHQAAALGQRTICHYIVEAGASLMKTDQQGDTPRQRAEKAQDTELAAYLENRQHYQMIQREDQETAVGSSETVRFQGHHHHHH

As to `CC[C@H]1CN(C(C)c2ccc(C3(C)CC3)cc2)[C@H](CC)CN1c1nc(=O)n(C)c2ccc(C#N)nc12` (stereo partly drawn) [Example 218, 4-((2S,5R)-2,5-diethyl-4-(1-(4-(1-methylcyclopropyl)phenyl)ethyl)piperazin-1-yl)-1-methyl-2-oxo-1,2-dihydropyrido[3,2-d]pyrimidine-6-carbonitrile], the half-maximal inhibitory concentration (IC50) was 78 nM on human DGKα and 18 nM on human DGKζ.
The like results for `CCC(c1ccc(OC(F)F)cc1)N1C[C@H](CC)N(c2nc(=O)n(C)c3ccc(C#N)nc23)C[C@H]1CC` (stereo partly drawn) [Example 222, 4-((2S,5R)-4-(1-(4-(difluoromethoxy)phenyl)propyl)-2,5-diethylpiperazin-1-yl)-1-methyl-2-oxo-1,2-dihydropyrido[3,2-d]pyrimidine-6-carbonitrile] were, in that order, 2 nM and 17 nM.
Regarding `CCC(c1ccc(OC(C)C)cc1)N1C[C@H](CC)N(c2nc(=O)n(C)c3ccc(C#N)nc23)C[C@H]1CC` (stereo partly drawn) [Example 235, 4-((2S,5R)-2,5-diethyl-4-(1-(4-isopropoxyphenyl)propyl)piperazin-1-yl)-1-methyl-2-oxo-1,2-dihydropyrido[3,2-d] pyrimidine-6-carbonitrile], the figures for the 50% inhibitory concentration (IC50) at human DGKα and on human DGKζ were 430 nM and 780 nM, respectively.
For `CC[C@@H]1CN(c2nc(=O)n(C)c3ccc(C#N)nc23)[C@@H](CC)CN1Cc1ccc(C2CC2)cc1F` [Example 242, 4-((2S,5R)-4-(4-cyclopropyl-2-fluorobenzyl)-2,5-diethylpiperazin-1-yl)-1-methyl-2-oxo-1,2-dihydropyrido[3,2-d]pyrimidine-6-carbonitrile], in that order: 260 nM and 190 nM.
As for `CC[C@H]1CN(C(C)c2ccc(C(C)(C)N3CCOCC3)cc2)[C@H](CC)CN1c1nc(=O)n(C)c2ccc(C#N)nc12` (stereo partly drawn) [Example 247, 4-((2S,5R)-2,5-diethyl-4-(1-(4-(2-morpholinopropan-2-yl)phenyl)ethyl)piperazin-1-yl)-1-methyl-2-oxo-1,2-dihydropyrido[3,2-d]pyrimidine-6-carbonitrile], the figures for the IC50 on human DGKα and at human DGKζ were 5870 nM and 840 nM, respectively.
For `CC[C@H]1CN(C(C)c2ccc3oc(C4CC4)nc3c2)[C@H](CC)CN1c1nc(=O)n(C)c2ccc(C#N)nc12` (stereo partly drawn) [Example 253, 4-((2S,5R)-4-(1-(2-cyclopropylbenzo[d]oxazol-5-yl)ethyl)-2,5-diethylpiperazin-1-yl)-1-methyl-2-oxo-1,2-dihydropyrido[3,2-d]pyrimidine-6-carbonitrile], in that order: 3800 nM and 97 nM.
The like results for `CC[C@H]1CN(C(C)c2ccc3oc(C4CC4)nc3c2)[C@H](CC)CN1c1nc(=O)n(C)c2ccc(C#N)nc12` (stereo partly drawn) [Example 254, 4-((2S,5R)-4-(1-(2-cyclopropylbenzo[d]oxazol-5-yl)ethyl)-2,5-diethylpiperazin-1-yl)-1-methyl-2-oxo-1,2-dihydropyrido[3,2-d]pyrimidine-6-carbonitrile] were, in that order, 2850 nM and 2150 nM.
The like results for `CC[C@H]1CN(C(c2ccc(F)cc2)c2cccc(C(F)F)n2)[C@H](CC)CN1c1nc(=O)n(C)c2ccc(C#N)nc12` (stereo partly drawn) [Example 257, 4-((2S,5R)-4((6-(difluoromethyl)pyridin-2-yl)(4-fluorophenyl)methyl)-2,5-diethylpiperazin-1-yl)-1-methyl-2-oxo-1,2-dihydropyrido[3,2-d]pyrimidine-6-carbonitrile] were, in that order, 170 nM and 250 nM.
On to `CC[C@H]1CN(C(c2ccc(F)cc2)c2cccc(C(F)F)n2)[C@H](CC)CN1c1nc(=O)n(C)c2ccc(C#N)nc12` (stereo partly drawn) [Example 258, 4-((2S,5R)-4((6-(difluoromethyl)pyridin-2-yl)(4-fluorophenyl)methyl)-2,5-diethylpiperazin-1-yl)-1-methyl-2-oxo-1,2-dihydropyrido[3,2-d]pyrimidine-6-carbonitrile], for which the results for the concentration for half-maximal inhibition (IC50) on human DGKα and at human DGKζ were 64 nM and 360 nM, respectively.
